Results as given in PMC9894920, “Development of an improved and specific inhibitor of NADPH oxidase 2 to treat traumatic brain injury” (Redox Biology, 2023).
Converted amounts (≈) assume the structure as drawn.

Experiments:
[1] = Aqueous kinetic solubility in PBS buffer; type: physicochemical; settings: aqueous buffer, kinetic from dmso stock, read-out: Solubility
Experimental: (§1) The rat liver microsomal stability, parallel artificial membrane permeability assay (PAMPA), and aqueous kinetic solubility assay in phosphate-buffered saline (PBS) buffer were performed as described in the indicated references.

[2] = Rat liver microsomal stability; type: in vitro ADME; settings: SD, rat, liver microsomes, read-out: Rat_SD/Microsomes t1/2 (m)
Experimental: as §1

NOX4 = molecular target: T1, NOX4 (Homo sapiens, UniProt Q9NPH5); assay: Expi293 whole cell assay, NOX4 overexpression; type: cell-based; settings: doses 100x higher than GSK2795039
T1 construct: expressed in transfected cells; host or cells: Expi293 (human embryonic kidney) cells, transient transfection, 48 hours
T1 sequence (Q9NPH5 1-578): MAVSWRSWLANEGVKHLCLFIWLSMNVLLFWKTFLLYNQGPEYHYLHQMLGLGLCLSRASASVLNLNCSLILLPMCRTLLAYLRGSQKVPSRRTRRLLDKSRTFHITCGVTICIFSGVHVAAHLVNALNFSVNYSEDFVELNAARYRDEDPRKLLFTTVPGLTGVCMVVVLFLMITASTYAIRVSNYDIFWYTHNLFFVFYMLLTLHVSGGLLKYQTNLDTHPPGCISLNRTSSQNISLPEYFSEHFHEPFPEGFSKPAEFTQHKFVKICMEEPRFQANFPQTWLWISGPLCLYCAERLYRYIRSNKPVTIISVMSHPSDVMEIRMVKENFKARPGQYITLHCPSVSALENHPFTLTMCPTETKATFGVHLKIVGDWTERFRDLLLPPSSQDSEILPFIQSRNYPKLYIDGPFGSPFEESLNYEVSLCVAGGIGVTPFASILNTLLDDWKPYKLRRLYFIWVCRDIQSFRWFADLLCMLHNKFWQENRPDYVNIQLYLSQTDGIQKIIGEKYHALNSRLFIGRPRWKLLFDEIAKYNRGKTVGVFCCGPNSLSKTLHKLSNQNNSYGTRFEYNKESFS
T1 sequence (P13498 2-195 partner limits assumed): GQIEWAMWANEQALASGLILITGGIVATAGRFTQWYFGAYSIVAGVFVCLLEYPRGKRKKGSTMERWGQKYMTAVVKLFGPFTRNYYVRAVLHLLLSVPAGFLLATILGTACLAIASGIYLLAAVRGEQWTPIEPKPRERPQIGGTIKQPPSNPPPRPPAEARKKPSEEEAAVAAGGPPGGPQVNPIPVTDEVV
Experimental: (§2) Given concerns about previous assays for specific NOX family members we here report the first use of the Expi293 Expression System (Thermo Scientific) to overexpress NOX1, 2, 3, 4, and 5 in excess of any endogenous NOX proteins present in these cells. Transfections were performed following the manufacturer's instructions using the plasmids for each NOX as described in Supplemental Table 2 except that the enhancer solution provided with the Expi293 system was not used because it promoted enzyme activation.
(§3) After the times indicated in Supplemental Table 2, cells were washed and 50,000 added per well of a white 96-well plate (Greiner) along with 50 μM Luminol and 2.5 U horseradish peroxidase/mL in a volume of 90 μl for NOX1, NOX2, and NOX5. Inhibitors or vehicle controls were added and cells were incubated for 20 min at 37 °C prior to activation with the indicated stimuli. For NOX3 and NOX4 (constitutively active), cells were incubated with inhibitor or vehicle control prior to the addition of luminol and HRP. Chemiluminescence was measured every 2 min for 1 s per well at 37 °C in a Varioscan Multimode reader. AUC data were analyzed using GraphPad Prism using non-linear regression analysis after expressing relative to control alone (maximum ROS production).

[3] = test system: NOX1 reconstituted with p47phox and p67phox; assay: NOX1 reconstituted with cytosolic phox proteins (p47phox and p67phox), data not shown; type: cell-based
Description: (§4) Another experiment (data not shown) examined the potency of NCATS-SM7270 against NOX1 and NOX3 reconstituted with cytosolic phox proteins (p47phox and p67phox).

[4] = test system: NOX3 reconstituted with p47phox and p67phox; assay: NOX3 reconstituted with cytosolic phox proteins (p47phox and p67phox), data not shown; type: cell-based
Description: as §4

[5] = Parallel artificial membrane permeability assay (PAMPA); type: in vitro ADME; settings: pH 7.4, PAMPA, pH7.4, read-out: Permeability(pH7.4) (PAMPA_Pion_Lipid 1e-6 cm/s)
Experimental: as §1

[6] = test system: mTBI induced cortical cell death; assay: Focal cortical mTBI model, transcranial administration, cortical cell death (propidium iodide); type: in vivo, mouse
NOX5 = molecular target: T2, NOX5 (Homo sapiens, UniProt Q96PH1); assay: Expi293 whole cell assay, NOX5 overexpression; type: cell-based; settings: highest dose about 100x the IC50 versus NOX2
T2 sequence (Q96PH1 1-719 isoform Q96PH1-4): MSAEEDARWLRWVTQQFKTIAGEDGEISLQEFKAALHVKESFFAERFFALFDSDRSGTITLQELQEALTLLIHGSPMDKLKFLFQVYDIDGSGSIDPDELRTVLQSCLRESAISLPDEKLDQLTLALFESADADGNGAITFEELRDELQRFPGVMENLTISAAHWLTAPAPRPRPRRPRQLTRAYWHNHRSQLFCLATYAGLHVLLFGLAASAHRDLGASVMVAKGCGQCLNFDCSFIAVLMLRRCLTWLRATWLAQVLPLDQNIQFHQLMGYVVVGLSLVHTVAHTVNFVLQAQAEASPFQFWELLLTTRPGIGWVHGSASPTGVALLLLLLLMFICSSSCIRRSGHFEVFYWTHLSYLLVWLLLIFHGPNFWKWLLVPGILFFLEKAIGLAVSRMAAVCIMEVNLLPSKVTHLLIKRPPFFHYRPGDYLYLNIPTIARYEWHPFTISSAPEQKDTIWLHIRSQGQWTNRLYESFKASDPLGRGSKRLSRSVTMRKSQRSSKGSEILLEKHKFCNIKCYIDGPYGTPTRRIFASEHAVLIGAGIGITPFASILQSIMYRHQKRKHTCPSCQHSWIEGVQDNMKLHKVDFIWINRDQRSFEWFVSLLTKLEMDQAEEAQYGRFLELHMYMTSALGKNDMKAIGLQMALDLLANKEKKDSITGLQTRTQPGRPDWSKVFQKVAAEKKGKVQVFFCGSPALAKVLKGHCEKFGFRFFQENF
Experimental: as §2, §3

Structure (SMILES): Cn1ccc(S(=O)(=O)Nc2ccnc3c2c(-c2ccc4ccn(C)c4c2)cn3C2CC2)n1 [NCATS-SM7270, N-(1-cyclopropyl-3-(1-methyl-1H-indol-6-yl)-1H-pyrrolo [2,3-b]pyridin-4-yl)-1-methyl-1H-pyrazole-3-sulfonamide]
- solubility [1]: 19.6 µg/mL (≈ 43.9 µM)
- half-life [2]: 3.7 min
- activity against NOX4 (NOX4): no detectable activity
- dose needed to observe inhibition of NOX1 versus NOX2 [3]: ~10 fold
- dose needed to observe inhibition of NOX3 versus NOX2 [4]: ~10 fold
- Papp [5]: 999 ×10⁻⁶ cm/s
- cortical cell death in NOX1 deficient mice ([6]; NOX1 KO mice, 40 μM transcranial): had no impact
- cortical cell death in NOX2 deficient mice ([6]; NOX2 KO mice, 40 μM transcranial): had no impact
- cortical cell death in NOX4 KO mice ([6]; NOX4 KO mice, 40 μM transcranial): significantly reduced cortical cell death
- reduction of cortical cell death ([6]; WT mice, 40 μM transcranially immediately after mTBI): ~50%
- dose dependence of reduction in mTBI induced cortical cell death ([6]; WT mice, transcranial, titration 10, 50 or 100 μM): dose-dependent reduction
- activity against NOX5 (NOX5): only marginal activity at the highest dose tested
